Numbers after ± are expanded uncertainties.
Conditions: for mass density: 101.33 kPa, Liquid

CCCCCCC [heptane]
surface tension liquid-gas (288.15 K): 20.81 ± 0.27 mN/m | mass density (288.15 K): 687.98 ± 0.65 kg/m3 | surface tension liquid-gas (293.15 K): 20.27 ± 0.27 mN/m | mass density (293.15 K): 683.78 ± 0.65 kg/m3 | surface tension liquid-gas (298.15 K): 19.68 ± 0.27 mN/m | mass density (298.15 K): 679.55 ± 0.66 kg/m3 | surface tension liquid-gas (303.15 K): 19.19 ± 0.26 mN/m | mass density (303.15 K): 675.3 ± 0.66 kg/m3 | surface tension liquid-gas (308.15 K): 18.93 ± 0.26 mN/m | mass density (308.15 K): 671 ± 0.67 kg/m3

CCCCCCCCO [octan-1-ol]
surface tension liquid-gas (288.15 K): 27.41 ± 0.31 mN/m | mass density (288.15 K): 828.55 ± 0.45 kg/m3 | surface tension liquid-gas (293.15 K): 26.94 ± 0.31 mN/m | mass density (293.15 K): 825.11 ± 0.45 kg/m3 | surface tension liquid-gas (298.15 K): 26.52 ± 0.31 mN/m | mass density (298.15 K): 821.64 ± 0.46 kg/m3 | surface tension liquid-gas (303.15 K): 26.07 ± 0.3 mN/m | mass density (303.15 K): 818.19 ± 0.46 kg/m3 | surface tension liquid-gas (308.15 K): 25.52 ± 0.3 mN/m | mass density (308.15 K): 814.69 ± 0.47 kg/m3

CCCCCCO [hexan-1-ol]
surface tension liquid-gas (288.15 K): 26.08 ± 0.32 mN/m | mass density (288.15 K): 822.28 ± 0.91 kg/m3 | surface tension liquid-gas (293.15 K): 25.61 ± 0.32 mN/m | mass density (293.15 K): 818.75 ± 0.92 kg/m3 | surface tension liquid-gas (298.15 K): 25.19 ± 0.32 mN/m | mass density (298.15 K): 815.23 ± 0.93 kg/m3 | surface tension liquid-gas (303.15 K): 24.74 ± 0.32 mN/m | mass density (303.15 K): 811.6 ± 0.94 kg/m3 | surface tension liquid-gas (308.15 K): 24.19 ± 0.31 mN/m | mass density (308.15 K): 808 ± 0.95 kg/m3

CCCCO [butan-1-ol]
surface tension liquid-gas (288.15 K): 24.68 ± 0.29 mN/m | mass density (288.15 K): 813.32 ± 0.23 kg/m3 | surface tension liquid-gas (293.15 K): 24.21 ± 0.29 mN/m | mass density (293.15 K): 809.56 ± 0.23 kg/m3 | surface tension liquid-gas (298.15 K): 23.79 ± 0.29 mN/m | mass density (298.15 K): 805.72 ± 0.24 kg/m3 | surface tension liquid-gas (303.15 K): 23.34 ± 0.28 mN/m | mass density (303.15 K): 801.91 ± 0.24 kg/m3 | surface tension liquid-gas (308.15 K): 22.79 ± 0.28 mN/m | mass density (308.15 K): 798.07 ± 0.24 kg/m3

Reference: the NIST ThermoML archive (doi:10.1021/je060179e)
